pIC50, pKd: −log10 of the molar value.

The subject of assay [1] is THP-1 cells expressing G12D (NRAS G12D). The assay can be described thus: Inhibition of NRAS G12D-mediated phosphorylation of ERK (AlphaLISA p-ERK1/2) in THP-1 cells. The class given is cell-based. Conditions: Homo sapiens, THP-1, 2 h, 2 hours incubation, HBSS with 0% or 10% FBS, p-ERK1/2 (Thr202/Tyr204) AlphaLISA, read-out: pERK THP-1 IC50. The essentials:
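THP-1 cells expressing NRAS G12D, seeded in HBSS with 0% or 10% FBS, were exposed to test compound (1% DMSO final) for 2 h. p-ERK1/2 (Thr202/Tyr204) read by AlphaLISA SureFire Ultra. IC50 from curves normalized to no-inhibitor (100%) and 1 μM trametinib (0%) controls.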

Another assay addresses NRAS G12D C118S (Homo sapiens (Human), UniProt P01111, C118S/G12D). The assay can be described thus: NRas G12D Surface Plasmon Resonance (SPR) binding assay. Conditions: Avi-tagged biotinylated NRAS G12D C118S on streptavidin chip, 25° C., 1:1 kinetic or steady-state fit. The method, boiled down:
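Biotinylated Avi-tagged NRAS G12D C118S was captured at about 600 RU on a streptavidin chip alongside a blank reference channel. Compounds were run as 10-point 1:3 dilution series in HBS-P+ pH 7.4 with 5 mM MgCl2 and 3% DMSO, using a 2–4% DMSO solvent correction. A control compound at 10 μM was injected periodically to check protein activity.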

Sequence of NRAS G12D C118S (P01111 whole entry G12D/C118S): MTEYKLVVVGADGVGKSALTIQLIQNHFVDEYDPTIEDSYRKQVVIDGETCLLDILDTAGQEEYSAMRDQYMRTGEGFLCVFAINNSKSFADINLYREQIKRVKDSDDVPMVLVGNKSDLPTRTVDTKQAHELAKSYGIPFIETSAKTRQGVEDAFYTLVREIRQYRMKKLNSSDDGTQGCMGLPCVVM

For `C#Cc1c(F)ccc2cc(O)cc(-c3c(F)cc4c([C@H]5[C@@H]6CNC[C@@H]65)cn(C)c4c3F)c12` [Example 29, 4-(3-((1R,5S,6s)-3-azabicyclo[3.1.0]hexan-6-yl)-5,7-difluoro-1-methyl-1H-indol-6-yl)-5-ethynyl-6-fluoronaphthalen-2-ol], the pIC50 (commonly the negative decadic logarithm of the IC50, by convention in mol/L) in assay [1] was 5.51. The pKd (commonly the negative decadic logarithm of the Kd, by convention in mol/L) at NRAS G12D C118S is 6.02.

Consider `C#Cc1c(F)ccc2cc(O)cc(-c3ncc4c([C@H]5[C@@H]6CNC[C@@H]65)nn(C5C[C@@H]5C)c4c3F)c12` (stereo partly drawn) [Example 46, 4-(3-((1R,5S,6r)-3-azabicyclo[3.1.0]hexan-6-yl)-7-fluoro-1-((1S,2S)-2-methylcyclopropyl)-1H-pyrazolo[4,3-c]pyridin-6-yl)-5-ethynyl-6-fluoronaphthalen-2-ol], for which the pIC50 in assay [1] is 5.71. At NRAS G12D C118S, this compound showed a pKd of 7.22.

On to `C#Cc1c(F)ccc2cc(O)cc(-c3ncc4c(N5CC6CCC5CN6)nn(C5CC5)c4c3F)c12` (centres unmarked) [Example 105, 4-(3-(2,5-diazabicyclo[2.2.2]octan-2-yl)-1-cyclopropyl-7-fluoro-1H-pyrazolo[4,3-c]pyridin-6-yl)-5-ethynyl-6-fluoronaphthalen-2-ol], for which the pIC50 in assay [1] was 6.29. At NRAS G12D C118S, this compound showed a negative logarithm of the Kd (pKd) of 7.73.

For the compound `C#Cc1c(F)ccc2cc(O)cc(-c3ncc4c([C@H]5[C@@H]6CNC[C@@H]65)nn(C5CC5)c4c3F)c12` [Example 4, 4-(3-((1R,5S,6r)-3-azabicyclo[3.1.0]hexan-6-yl)-1-cyclopropyl-7-fluoro-1H-pyrazolo[4,3-c]pyridin-6-yl)-5-ethynyl-6-fluoronaphthalen-2-ol 2,2,2-trifluoroacetate], in assay [1], the pIC50 is 6.40. The compound further gave a pKd on NRAS G12D C118S of 7.69.

For the compound `C#Cc1c(F)ccc2cc(O)cc(-c3ncc4c(c(C)cn4C4CC5CCC4CN5)c3F)c12` (centres unmarked) [Example 39, 4-[1-(2-azabicyclo[2.2.2]octan-5-yl)-4-fluoro-3-methyl-pyrrolo[2,3-c]pyridin-5-yl]-5-ethynyl-6-fluoro-naphthalen-2-ol], in assay [1], the pIC50 is 5.32. Besides, the pKd at NRAS G12D C118S is 6.36.

With `C#Cc1c(F)ccc2cc(O)cc(-c3ncc4c([C@H]5[C@@H]6CNC(CO)[C@@H]65)nn(C)c4c3F)c12` (stereo partly drawn) [Example 97, 5-ethynyl-6-fluoro-4-(7-fluoro-3-((1S,5R,6S)-2-(hydroxymethyl)-3-azabicyclo[3.1.0]hexan-6-yl)-1-methyl-1H-pyrazolo[4,3-c]pyridin-6-yl)naphthalen-2-ol], the pIC50 in assay [1] is 5.65. In addition, the pKd at NRAS G12D C118S was 6.72.

In the case of `C#Cc1c(F)ccc2cc(O)cc(-c3nc(OC)c4c([C@H]5[C@@H]6CNC[C@@H]65)nn(C5CC5)c4c3F)c12` [Example 61, 4-(3-((1R,5S,6r)-3-azabicyclo[3.1.0]hexan-6-yl)-1-cyclopropyl-7-fluoro-4-methoxy-1H-pyrazolo[4,3-c]pyridin-6-yl)-5-ethynyl-6-fluoronaphthalen-2-ol], the pIC50 in assay [1] is 6.32. Also, the pKd at NRAS G12D C118S was 7.80.

With `C#Cc1c(F)ccc2cc(O)cc(-c3ncc4c(N5C[C@@H]6C[C@H](O)[C@H](C5)N6)nn(C)c4c3F)c12` [Example 57, (1S,5S,6S)-3-(6-(8-ethynyl-7-fluoro-3-hydroxynaphthalen-1-yl)-7-fluoro-1-methyl-1H-pyrazolo[4,3-c]pyridin-3-yl)-3,8-diazabicyclo[3.2.1]octan-6-ol], the pIC50 in assay [1] was 4.76. Also, at NRAS G12D C118S, the pKd is 6.13.

Regarding `C#Cc1c(F)ccc2cc(O)cc(-c3ncc4c([C@H]5[C@@H]6CNC[C@@H]65)nn(CCCN(C)C)c4c3F)c12` [Example 102, 4-(3-((1R,5S,6r)-3-azabicyclo[3.1.0]hexan-6-yl)-1-(3-(dimethylamino)propyl)-7-fluoro-1H-pyrazolo[4,3-c]pyridin-6-yl)-5-ethynyl-6-fluoronaphthalen-2-ol], the pIC50 in assay [1] is under 5.00. Besides, the pKd at NRAS G12D C118S was 5.12.

For the compound `C#Cc1c(F)ccc2cc(O)cc(-c3nc(OC4CC(F)(F)C4)c4c([C@H]5[C@@H]6CNC[C@@H]65)nn(C5CC5)c4c3F)c12` [Example 68, 4-(3-((1R,5S,6r)-3-azabicyclo[3.1.0]hexan-6-yl)-1-cyclopropyl-4-(3,3-difluorocyclobutoxy)-7-fluoro-1H-pyrazolo[4,3-c]pyridin-6-yl)-5-ethynyl-6-fluoronaphthalen-2-ol], the pIC50 in assay [1] was 5.67. The pKd at NRAS G12D C118S is 6.25.

As to `C#Cc1c(F)ccc2cc(O)cc(-c3nc(OC4CC4)c4c([C@H]5[C@@H]6CNC[C@@H]65)nn(C5CC5)c4c3F)c12` [Example 70, 4-(3-((1R,5S,6r)-3-azabicyclo[3.1.0]hexan-6-yl)-4-cyclopropoxy-1-cyclopropyl-7-fluoro-1H-pyrazolo[4,3-c]pyridin-6-yl)-5-ethynyl-6-fluoronaphthalen-2-ol], the negative logarithm of the IC50 (pIC50) in assay [1] is 6.77. The pKd at NRAS G12D C118S is 7.48.

With `C#Cc1c(F)ccc2cc(O)cc(-c3ccc4c([C@H]5[C@@H]6CNC[C@@H]65)nn(C)c4c3F)c12` [Example 27, 4-(3-((1R,5S,6r)-3-azabicyclo[3.1.0]hexan-6-yl)-7-fluoro-1-methyl-1H-indazol-6-yl)-5-ethynyl-6-fluoronaphthalen-2-ol], the pIC50 in assay [1] is 5.02. The pKd at NRAS G12D C118S is 5.50.

For the compound `C#Cc1c(F)ccc2cc(O)cc(-c3nc(OC4CCC4)c4c([C@H]5[C@@H]6CNC[C@@H]65)nn(C5CC5)c4c3F)c12` [Example 64, 4-(3-((1R,5S,6r)-3-azabicyclo[3.1.0]hexan-6-yl)-4-cyclobutoxy-1-cyclopropyl-7-fluoro-1H-pyrazolo[4,3-c]pyridin-6-yl)-5-ethynyl-6-fluoronaphthalen-2-ol], the pIC50 in assay [1] was 6.32. At NRAS G12D C118S, the pKd is 7.61.

As for `C#CCn1nc([C@H]2[C@@H]3CNC[C@@H]32)c2cnc(-c3cc(O)cc4ccc(F)c(C#C)c34)c(F)c21` [Example 59, 4-(3-((1R,5S,6r)-3-azabicyclo[3.1.0]hexan-6-yl)-7-fluoro-1-(prop-2-yn-1-yl)-1H-pyrazolo[4,3-c]pyridin-6-yl)-5-ethynyl-6-fluoronaphthalen-2-ol], in assay [1], the pIC50 is 5.46. Also, at NRAS G12D C118S, the pKd was 5.95.

For the compound `C#Cc1c(F)ccc2cc(O)cc(-c3ncc4c(N5CC6CC(C5)N6)nn(C)c4c3F)c12` [Example 34, 4-[3-(3,6-diazabicyclo[3.1.1]heptan-3-yl)-7-fluoro-1-methyl-pyrazolo[4,3-c]pyridin-6-yl]-5-ethynyl-6-fluoro-naphthalen-2-ol], the negative-log IC50 (pIC50) in assay [1] was 5.22. The compound further gave a pKd on NRAS G12D C118S of 6.21.

Take `C#Cc1c(F)ccc2cc(O)cc(-c3ncc4c(C5C6CNCC65)nn(C5CC5(F)F)c4c3F)c12` (centres unmarked) [Example 49, 4-[3-(3-azabicyclo[3.1.0]hexan-6-yl)-1-(2,2-difluorocyclopropyl)-7-fluoro-pyrazolo[4,3-c]pyridin-6-yl]-5-ethynyl-6-fluoro-naphthalen-2-ol]: in assay [1], the pIC50 is 6.36. On NRAS G12D C118S, this compound showed a pKd of 7.09.

With `C#Cc1c(F)ccc2cc(O)cc(-c3nc(CC)c4c(N5C[C@@H]6CC[C@H]5CN6)nn(C5CC5)c4c3F)c12` [Example 90, 4-(3-((1S,4S)-2,5-diazabicyclo[2.2.2]octan-2-yl)-1-cyclopropyl-4-ethyl-7-fluoro-1H-pyrazolo[4,3-c]pyridin-6-yl)-5-ethynyl-6-fluoronaphthalen-2-ol], the pIC50 in assay [1] is 6.05. Further, the negative-log Kd (pKd) on NRAS G12D C118S was 6.97.

For `C#Cc1c(F)ccc2cc(O)cc(-c3ncc4c(N5C[C@@H]6CC[C@H]5CN6)cn(C5CC5)c4c3F)c12` [Example 86, 4-(3-((1S,4S)-2,5-diazabicyclo[2.2.2]octan-2-yl)-1-cyclopropyl-7-fluoro-1H-pyrrolo[3,2-c]pyridin-6-yl)-5-ethynyl-6-fluoronaphthalen-2-ol], in assay [1], the pIC50 was 6.12. At NRAS G12D C118S, this compound gave a pKd of 6.82.

Consider `C#Cc1c(F)ccc2cc(O)cc(-c3ncc4c(C5[C@H]6CNC[C@@H]56)cn(CCO)c4c3F)c12` (stereo partly drawn) [Example 103, 4-(3-((1R,5S)-3-azabicyclo[3.1.0]hexan-6-yl)-7-fluoro-1-(2-hydroxyethyl)-1H-pyrrolo[3,2-c]pyridin-6-yl)-5-ethynyl-6-fluoronaphthalen-2-ol], for which, in assay [1], the pIC50 is under 4.30. On NRAS G12D C118S, the negative-log Kd (pKd) is 6.31.

As to `C#Cc1c(F)ccc2cc(O)cc(-c3nc(C(C)C)c4c([C@H]5[C@@H]6CNC[C@@H]65)nn(C5CC5)c4c3F)c12` [Example 74, 4-(3-((1R,5S,6r)-3-azabicyclo[3.1.0]hexan-6-yl)-1-cyclopropyl-7-fluoro-4-isopropyl-1H-pyrazolo[4,3-c]pyridin-6-yl)-5-ethynyl-6-fluoronaphthalen-2-ol], the pIC50 in assay [1] is 8.02. The compound also showed a negative logarithm of the Kd (pKd) on NRAS G12D C118S of 9.85.

In the case of `C#Cc1c(F)ccc2cc(O)cc(-c3nc(OC4CCCC4)c4c([C@H]5[C@@H]6CNC[C@@H]65)nn(C5CC5)c4c3F)c12` [Example 65, 4-(3-((1R,5S,6r)-3-azabicyclo[3.1.0]hexan-6-yl)-4-(cyclopentyloxy)-1-cyclopropyl-7-fluoro-1H-pyrazolo[4,3-c]pyridin-6-yl)-5-ethynyl-6-fluoronaphthalen-2-ol], in assay [1], the pIC50 was 5.98. Moreover, on NRAS G12D C118S, the pKd was 6.90.

Consider `C#Cc1c(F)ccc2cc(O)cc(-c3ncc4c(N5CC6CCC(C5)N6)nn(C)c4c3F)c12` [Example 13, 4-(3-(3,8-diazabicyclo[3.2.1]octan-3-yl)-7-fluoro-1-methyl-1H-pyrazolo[4,3-c]pyridin-6-yl)-5-ethynyl-6-fluoronaphthalen-2-ol], for which, in assay [1], the pIC50 is 5.17. Besides, the pKd at NRAS G12D C118S is 6.05.

The values are drawn from patent publication US20260022118A1, “HETEROCYCLIC COMPOUNDS AS NRAS INHIBITORS” (Board of Regents, The University of Texas System, priority 2023, published 2026).
